# According to patent US10336675B2, “Biaromatic vitamin D analogs” (DSM IP ASSETS B.V., priority 2015, dated 2019):
# pEC50: −log10 of the molar value.
# Target: T1, human vitamin D receptor (VDR) (Homo sapiens, UniProt P11473)
# T1 construct: expressed in transfected cells; host or cells: HEK293 cells (ATCC), transient transfection with a GATEWAY-compatible pCMV-BD vector
# T1 sequence (P11473 127-423 limits assumed): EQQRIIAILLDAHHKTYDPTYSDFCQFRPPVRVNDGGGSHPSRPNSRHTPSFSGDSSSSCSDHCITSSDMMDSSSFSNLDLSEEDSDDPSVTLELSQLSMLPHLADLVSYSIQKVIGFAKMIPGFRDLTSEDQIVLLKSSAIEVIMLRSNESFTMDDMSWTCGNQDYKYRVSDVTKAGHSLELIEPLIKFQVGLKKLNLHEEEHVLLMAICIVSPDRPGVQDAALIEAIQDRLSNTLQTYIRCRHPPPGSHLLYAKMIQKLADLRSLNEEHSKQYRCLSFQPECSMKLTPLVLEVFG
# Test: Human vitamin D receptor (VDR) agonist activity: GAL4-VDR LBD luciferase transactivation assay in transiently transfected HEK293 cells
# Format: cell-based
# Conditions: VDR LBD-GAL4 DBD fusion, pFR-Luc luciferase reporter, 16 h incubation, read-out: Effective concentrations of half maximal activation (EC50)
# From the text: By way of example, the human vitamin D receptor (VDR) agonist activity of the claimed compounds can be tested using a cell based transactivation assay in an eukaryotic cell line. After a co-transfection, using a reporter plasmid construct and a hybrid receptor construct containing the ligand-binding domain of the human VDR linked to the DNA-binding domain of the yeast transcription factor GAL4, the cultured cells were stimulated by the VDR agonists. The hybrid VDR-GAL4 receptor binds the VDR agonists and transactivates luciferase reporter expression through the GAL4-response elements in the promoter of the luciferase gene (reporter construct). The VDR agonist binding and transactivation is determined by measuring the luciferase luminescence activity. The effective concentration of half maximal activation (EC50) was determined for the VDR agonists by means of dose-response experiments. The details of the protocol method of this test according to the invention are described in the example section.
# Testing of the Human Vitamin D Receptor (VDR) Agonist Activity of the Compounds
# The transient transfections were performed in HEK293 cells (ATCC, Molsheim, France) grown in minimum essential medium (Eagle) with Earle's balanced salt solution without L-glutamine and supplemented with 10% fetal bovine serum (Sigma-Aldrich Corp., St. Gallen, Switzerland), 2 mM glutamax (Life Technologies AG, Basel, Switzerland), 0.1 mM non-essential amino acids (Life Technologies), and 1 mM sodium pyruvate (Life Technologies) at 37° C. in 5% CO2. For transfection, 7.5×10^4 cells were plated per well (80 μl) in white 96-well cell culture plates with clear bottom (Corning, Basel, Switzerland) in minimum essential medium (Eagle) with Earle's balanced salt solution without L-glutamine and without phenol red supplemented with 10% charcoal-treated fetal bovine serum (HyClone Laboratories, Inc., Logan, Utah, USA), 2 mM glutamax, 0.1 mM non-essential amino acids, and 1 mM sodium pyruvate. The cells were transiently transfected before stimulation the next day at >80% confluence by polyethylene-imine-based transfection. Compound stocks were prepared in DMSO, pre-diluted in PBS (0.45% final DMSO concentration), and added in the respective dilution 5 h after the addition of the transfection mixture onto the cells. The cells were again incubated for additional 16 h before firefly and renilla luciferases activity was measured sequentially in the same cell extract using buffers according to established protocols (Promega AG, Dübendorf, Switzerland). Transfection efficiency was controlled to the pRL-TK renilla luciferase reporter expression.
row,SMILES,pEC50
1,"CC/C(=C\C=C\C(O)(C(F)(F)F)C(F)(F)F)c1cccc(CCc2ccc(C(O)CCO)cc2)c1 (racemic) [I-b, 1-(4-(3-((3E,5E)-8,8,8-trifluoro-7-hydroxy-7-(trifluoromethyl)octa-3,5-dien-3-yl)phenethyl)phenyl)propane-1,3-diol]",7.92
2,"CC/C(=C\C=C\C(O)(CC)CC)c1cccc(CCc2ccc(C(O)C(CO)CCCCO)cc2)c1 (stereo not shown) [Comp1, reference compound]",6.95
3,"CC/C(=C\C=C\C(O)(CC)CC)c1cccc(CCc2ccc(C(O)C(C)CO)cc2)c1 (stereo not shown) [I-d, 1-(4-(3-((3E,5E)-7-ethyl-7-hydroxynona-3,5-dien-3-yl)phenethyl)phenyl)-2-methylpropane-1,3-diol]",7.55

# Second part, the compound after the results:
row,pEC50,SMILES
1,7.52,"CC/C(=C\C=C\C(O)(CC)CC)c1cccc(CCc2ccc(C(O)C(CO)CCCO)cc2)c1 (stereo not shown) [I-e, 1-(4-(3-((3E,5E)-7-ethyl-7-hydroxynona-3,5-dien-3-yl)phenethyl)phenyl)-2-(hydroxymethyl)pentane-1,5-diol]"
2,8.40,"CC/C(=C\C=C\C(O)(CC)CC)c1cccc(CCc2ccc(C(O)CC(C)O)cc2)c1 (stereo not shown) [I-a, 1-(4-(3-((3E,5E)-7-ethyl-7-hydroxynona-3,5-dien-3-yl)phenethyl)phenyl)butane-1,3-diol]"
3,7.47,"CC/C(=C\C=C\C(O)(CC)CC)c1cccc(CCc2ccc(C(O)C(C)C(C)O)cc2)c1 (stereo not shown) [I-f, 1-(4-{2-[3-((1E,3E)-1,5-Diethyl-5-hydroxy-hepta-1,3-dienyl)-phenyl]-ethyl}-phenyl)-2-methylbutane-1,3-diol]"
4,7.89,"CC/C(=C\C=C\C(O)(CC)CC)c1cccc(CCc2ccc(C(O)CCO)cc2)c1 (racemic) [I-c, 1-(4-(3-((3E,5E)-7-ethyl-7-hydroxynona-3,5-dien-3-yl)phenethyl)phenyl)propane-1,3-diol]"
